Reference: US11793746B2, “Intense skin hydration systems and methods” (priority 2020, dated 2023)

Experiments:
[1] = test system: PGE2 synthesis by 3T3 fibroblasts; experiment: Inhibition of PGE2 synthesis by 3T3 fibroblasts (ELISA); format: cell-based; conditions: for [PGE2]: 24 h
Source text: This Example establishes the anti-inflammatory potential of GC-100 by measuring the inhibition of PGE2 synthesis by 3T3 fibroblasts in cell culture.
The cells are nourished in a medium enriched with arachidonic acid which leads to increased secretion of eicosanoids into the medium.
The formation of prostaglandin PGE2 will be followed as a marker of eicosanoid synthesis, because it is a stable molecule secreted preferentially by 3T3 fibroblasts. The anti-inflammatory potential of an active ingredient may then be investigated by following the decrease in secretion of PGE2 in the culture medium.
Quantification of PGE2 will be achieved using an enzyme-linked immunosorbant assay (ELISA). In principle, the PGE2 expressed by the cells in culture medium will compete with enzyme-linked PGE2 for available antibody, which is a constant. The concentration of enzyme-linked PGE2 is also constant and quantified prior to testing. The enzyme linked to PGE2 prior to testing is acetylcholinesterase. Since the quantity of PGE2 expressed by 3T3 cells in culture will vary based on the concentration of GC-100 present, the amount of antibody available to bind to the enzyme-linked PGE2 versus that produced by the 3T3 cells assumes an inverse relationship that is dependent on Brownian motion. After eliminating unreacted PGE2 through washing, substrate is added that binds to the enzyme-PGE2-antibody complex to generate a yellow color that is strongly evident using spectrophotometer set at 412 nm. The amount of light transmitted through the test sample is directly proportional to the intensity of the color change and, consequently, to the concentration of PGE2-enzyme-antibody complex.
Create a mother solution (solution #1) containing complete DMEM, alcohol, and 2×10^5 3T3 fibroblasts for plating onto 25 cm^2 culture dishes. Using a compounding dilution technique, prepare the following solutions, using 5 mL of media per plate: • Solution #2: Solution #1 plus arachidonic acid (10^−3% P/V) • Solution #3: Solution #2 plus indomethacin (0,1,10^−3% P/V) • Solution #4: Solution #2 plus GC-100 0.5% • Solution #5: Solution #2 plus GC-100 1.0%
Incubate all preparations for 24 hours at 37° C. Recover the supernatant media, and if needed deep freeze it at −20° C. before quantification. Count the number of surviving cells using a coulter counter. Establish a calibration curve of the quantity of PGE2. Quantify the supernatant media using an enzyme-linked immunosorbant assay kit specific for PGE2 (Cayman), using a Dynotech microplate reader (MR500) with a filter set at 412 nm. Calculate the % inhibition of PGE2 synthesis. The results are shown in Table 4 and FIG. 10, which is a graph showing mean suppression of PGE2 concentration in test media comprising indomethacin or GC-100.

[2] = test system: collagen I and III synthesis; experiment: [3H]-Proline incorporation as measure of collagen deposition; format: cell-based, human
Source text: This human skin substrate consists of neonatal foreskin fibroblasts that secrete a functionally active extracellular matrix grown on a medical-grade nylon mesh cocultured with human neonatal foreskin keratinocytes that differentiate into a multilayered epidermis.
Quantifying proline incorporation can be used to measure potential collagen deposition stimulated by a test substance. This concept is the foundation for the following experiments.

[3] = DMEM + AA + Indomethacin, column A
[4] = DMEM + AA + Indomethacin, column B
[5] = DMEM + AA + Indomethacin, column C

SMILES: COc1ccc2c(c1)c(CC(=O)O)c(C)n2C(=O)c1ccc(Cl)cc1 [Indomethacin, indomethacin, reference compound]
- % change of PGE2 vs DMEM + AA, MEAN ([1]; DMEM + AA + Indomethacin): −87.2%
- % change of PGE2 vs DMEM + AA [1, 3]: −91%
- [PGE2] [1, 3]: 0.27 pg/mL
- % change of PGE2 vs DMEM + AA [1, 4]: −88%
- [PGE2] [1, 4]: 0.35 pg/mL
- % change of PGE2 vs DMEM + AA [1, 5]: −82.6%
- [PGE2] [1, 5]: 0.50 pg/mL
- suppression of PGE2 expression ([1]; indomethacin): 87%

SMILES: O=C1O[C@H]([C@@H](O)CO)C(O)=C1O [ascorbic acid]
- influence of ascorbic acid on proline incorporation ([2]; higher than optimal concentrations of ascorbic acid): suppress proline incorporation

SMILES: ClCc1ccccc1 [benzyl chloride]
- proline incorporation relative to control levels [2]: suppress proline incorporation below control levels
